The structures appear in SMILES notation. The source made the active and inactive calls. The calls are words filed in the database; no cut-off is given here. Positions of bridges follow the written chain, without caps; N, C: chain ends. Residues, ends and D or L forms follow the SMILES beside them.

For assay [1], the target named is T1, Urotensin-2 receptor (Rattus norvegicus) (UniProt P49684).
T1 sequence (whole entry): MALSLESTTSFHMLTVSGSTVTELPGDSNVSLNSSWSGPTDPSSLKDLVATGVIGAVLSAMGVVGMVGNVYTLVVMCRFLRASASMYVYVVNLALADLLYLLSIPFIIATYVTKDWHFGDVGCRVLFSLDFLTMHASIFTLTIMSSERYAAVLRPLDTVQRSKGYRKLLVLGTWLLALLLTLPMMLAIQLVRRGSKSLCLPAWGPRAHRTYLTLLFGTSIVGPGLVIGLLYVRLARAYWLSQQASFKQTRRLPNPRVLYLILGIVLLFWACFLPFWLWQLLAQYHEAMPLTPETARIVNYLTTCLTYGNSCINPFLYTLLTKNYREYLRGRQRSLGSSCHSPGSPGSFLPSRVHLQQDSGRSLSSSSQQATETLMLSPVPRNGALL
In words: Agonist activity at urotensin-2 receptor in Sprague-Dawley rat aortic rings assessed as KCl-induced vasoconstriction at 10^-5.5 M relative to control.

In assay [2] the target is T2, Urotensin-2 receptor (Rattus norvegicus, UniProt P49684).
T2 sequence (P49684 whole entry): T1 sequence (whole entry)
In words: Agonist activity at urotensin-2 receptor in Sprague-Dawley rat aortic rings assessed as KCl-induced vasoconstriction.

Assay [3] concerns the target T3, Urotensin-2 receptor (Homo sapiens, UniProt Q9UKP6).
T3 sequence (Q9UKP6 whole entry): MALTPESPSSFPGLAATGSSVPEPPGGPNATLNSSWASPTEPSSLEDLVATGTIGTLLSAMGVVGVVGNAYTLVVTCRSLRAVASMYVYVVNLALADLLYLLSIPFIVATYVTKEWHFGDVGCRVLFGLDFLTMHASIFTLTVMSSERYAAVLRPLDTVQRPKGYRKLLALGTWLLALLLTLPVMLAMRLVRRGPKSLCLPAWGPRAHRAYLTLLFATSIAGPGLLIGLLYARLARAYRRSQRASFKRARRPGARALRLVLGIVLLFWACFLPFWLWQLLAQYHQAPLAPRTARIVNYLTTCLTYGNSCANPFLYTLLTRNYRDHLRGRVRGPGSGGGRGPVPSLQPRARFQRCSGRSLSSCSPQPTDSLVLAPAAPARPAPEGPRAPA
Kind of assay: Displacement of [125I]-Urotensin-2 from human GPR14 expressed in CHO cells after 90 mins by gamma counting analysis. It is filed as cell-based.

The target in assay [4] is T1, Urotensin-2 receptor (Rattus norvegicus). In words: Agonist activity at urotensin-2 receptor in Sprague-Dawley rat aortic rings assessed as KCl-induced vasoconstriction at 3 X 10^-11 to 3 X 10^-6 M relative to control.

With `CC(C)[C@H](NC(=O)[C@@H]1CSSC[C@H](NC(=O)[C@H](C)N)C(=O)N[C@@H](Cc2ccccc2)C(=O)N2Cc3ccccc3C[C@H]2C(=O)N[C@@H](CCCCN)C(=O)N[C@@H](Cc2ccc(O)cc2)C(=O)N1)C(=O)O`, the Emax in assay [1] came to 43%. For the same compound, in assay [2] (read-out: pEC50 (converted)), the EC50 was > 1 µM. In addition, in assay [3] (read-out: pIC50 (converted)), the IC50 is > 10 µM.
Turning to `CC(C)[C@H](NC(=O)[C@@H]1CSSC[C@H](NC(=O)[C@H](C)N)C(=O)N[C@@H](Cc2ccccc2)C(=O)N2CCc3ccccc3[C@H]2C(=O)N[C@@H](CCCN)C(=O)N[C@@H](Cc2ccc(O)cc2)C(=O)N1)C(=O)O`, the Emax entry in assay [4] was “inactive”. For the same compound, the EC50 result in assay [2] is recorded as “Not Active”. Besides, the IC50 entry in assay [3] (cho) is given as “Not Active”.
As for `CC(C)[C@H](NC(=O)[C@@H]1CSSC[C@H](NC(=O)[C@H](C)N)C(=O)N[C@@H](Cc2ccccc2)C(=O)N2Cc3[nH]c4ccccc4c3C[C@@H]2C(=O)N[C@@H](CCCCN)C(=O)N[C@@H](Cc2ccc(O)cc2)C(=O)N1)C(=O)O`, the Emax in assay [1] was determined as 42%.
Take `CC(C)[C@H](NC(=O)[C@@H]1CSSC[C@H](NC(=O)[C@H](C)N)C(=O)N[C@@H](Cc2ccccc2)C(=O)N2CCc3ccccc3[C@@H]2C(=O)N[C@@H](CCCCN)C(=O)N[C@@H](Cc2ccc(O)cc2)C(=O)N1)C(=O)O`: the Emax in assay [4] stood at 113%. Also, in assay [2] (read-out: EC50), the EC50 was 0.021 µM. Further, the IC50 in assay [3] (read-out: IC50) stood at 0.021 µM.
As for `CC(C)[C@H](NC(=O)[C@@H]1CSSC[C@H](NC(=O)[C@H](CC(=O)O)NC(=O)[C@@H]2CCCN2C(=O)[C@@H](NC(=O)[C@@H](N)CCC(=O)O)[C@@H](C)O)C(=O)N[C@@H](Cc2ccccc2)C(=O)N2CCC[C@H]2C(=O)N[C@@H](CCCCN)C(=O)N[C@@H](Cc2ccc(O)cc2)C(=O)N1)C(=O)O` (H-ETPDCFPKYCV-OH; disulfide 5-10), the Emax in assay [1] stood at 69%.
On to `CC(C)[C@H](NC(=O)[C@@H]1CSSC[C@H](NC(=O)[C@H](C)N)C(=O)N[C@@H](Cc2ccccc2)C(=O)N[C@@H](C(c2ccccc2)c2ccccc2)C(=O)N[C@@H](CCCCN)C(=O)N[C@@H](Cc2ccc(O)cc2)C(=O)N1)C(=O)O`, for which the Emax in assay [1] came to 23%. Also, the EC50 in assay [2] (read-out: pEC50 (converted)) was > 1 µM. Further, the IC50 in assay [3] (read-out: pIC50 (converted)) was 0.282 µM.
Consider `CC(C)[C@H](NC(=O)[C@@H]1CSSC[C@H](NC(=O)[C@H](C)N)C(=O)N[C@@H](Cc2ccccc2)C(=O)N[C@H]2Cc3c([nH]c4ccccc34)CN(C2=O)[C@@H](CCCCN)C(=O)N[C@@H](Cc2ccc(O)cc2)C(=O)N1)C(=O)O`, for which the Emax in assay [4] was found to be 51%. Besides, the results for the EC50 in assay [2] (read-out: EC50) and in assay [2] (read-out: pEC50 (converted)) were 0.181 µM and 0.38 µM, respectively. The IC50 in assay [3] (read-out: IC50) came to 0.808 µM.
As for `CC(C)[C@H](NC(=O)[C@@H]1CSSC[C@H](NC(=O)[C@H](C)N)C(=O)N[C@@H](Cc2ccccc2)C(=O)N[C@@H](C(C)(C)C)C(=O)N[C@@H](CCCCN)C(=O)N[C@@H](Cc2ccc(O)cc2)C(=O)N1)C(=O)O`, the Emax result in assay [4] was “inactive”. Besides, in assay [2], the EC50 entry was “Not Active”. In assay [3] (read-out: pIC50 (converted)), the IC50 was > 10 µM.
For the compound `CC(C)[C@H](NC(=O)[C@@H]1CSSC[C@H](NC(=O)[C@H](C)N)C(=O)N[C@@H](Cc2ccccc2)C(=O)N[C@@H](CC2CCCCC2)C(=O)N[C@@H](CCCCN)C(=O)N[C@@H](Cc2ccc(O)cc2)C(=O)N1)C(=O)O`, in assay [1], the Emax worked out at 77%. For the same compound, in assay [2] (read-out: pEC50 (converted)), the EC50 is > 1 µM.
As to `CC(C)[C@H](NC(=O)[C@@H]1CSSC[C@H](NC(=O)[C@H](C)N)C(=O)N[C@@H](Cc2ccccc2)C(=O)N[C@@H](Cc2ccc(I)cc2)C(=O)N[C@@H](CCCCN)C(=O)N[C@@H](Cc2ccc(O)cc2)C(=O)N1)C(=O)O`, the Emax in assay [1] turned out to be 92%. For the same compound, the IC50 in assay [3] (read-out: IC50) stood at 0.058 µM.
Take `CC(C)[C@H](NC(=O)[C@@H]1CSSC[C@H](NC(=O)[C@H](C)N)C(=O)N[C@@H](Cc2ccccc2)C(=O)N[C@H](c2ccccc2)C(=O)N[C@@H](CCCCN)C(=O)N[C@@H](Cc2ccc(O)cc2)C(=O)N1)C(=O)O`: in assay [4], the Emax worked out at 116%. The EC50 in assay [2] (read-out: EC50) was found to be 0.117 µM. In assay [3] (read-out: pIC50 (converted)), the IC50 is 0.0275 µM.
In the case of `CC(C)[C@H](NC(=O)[C@@H]1CSSC[C@H](NC(=O)[C@H](C)N)C(=O)N[C@@H](Cc2ccccc2)C(=O)N[C@H](Cc2cccc3ccccc23)C(=O)N[C@@H](CCCCN)C(=O)N[C@@H](Cc2ccc(O)cc2)C(=O)N1)C(=O)O`, in assay [1], the Emax was determined as 34%. Besides, in assay [2] (read-out: EC50), the EC50 is 0.825 µM.
As for `CC(C)[C@H](NC(=O)[C@@H]1CSSC[C@H](NC(=O)[C@H](C)N)C(=O)N[C@@H](Cc2ccccc2)C(=O)N2CCc3ccccc3[C@H]2C(=O)N[C@@H](CCCCN)C(=O)N[C@@H](Cc2ccc(O)cc2)C(=O)N1)C(=O)O`, the Emax in assay [4] amounted to 126%. For the same compound, in assay [2] (read-out: EC50), the EC50 is 0.022 µM. In assay [3] (read-out: IC50), the IC50 was found to be 0.01 µM.
Regarding `CC(C)[C@H](NC(=O)[C@@H]1CSSC[C@H](NC(=O)[C@H](C)N)C(=O)N[C@@H](Cc2ccccc2)C(=O)N[C@H](C(C)(C)C)C(=O)N[C@@H](CCCCN)C(=O)N[C@@H](Cc2ccc(O)cc2)C(=O)N1)C(=O)O`, the Emax in assay [1] turned out to be 64%. Besides, the EC50 in assay [2] (read-out: pEC50 (converted)) is > 1 µM. Besides, the IC50 in assay [3] (read-out: pIC50 (converted)) was > 1 µM.

Source of the values: ChEMBL document CHEMBL3102770, “Development and pharmacological characterization of conformationally constrained urotensin II-related peptide agonists” (J Med Chem, 2013).
